Data taken from patent US20100075919A1, “COMPOSITIONS COMPRISING ALKYLDIMONIUM HYDROXYPROPYL ALKYLGLUCOSIDES” (priority 2008, published 2010).

Legend:
[1] = system: three bacterium and two fungal strains; assay: Testing of commercially available alkyldimonium hydroxypropyl alkylglucosides for biocidal efficacy in aqueous buffered borate solution; type: cell-based
A. Niger = assay: Preservative efficacy response study against A. Niger in borate-buffered solution; type: cell-based; details: S-1218 in the solutions with or without PHMB
Description: A “preservative-effective amount” is defined as a sufficient amount of alkyldimonium hydroxypropyl alkylglucoside of general formula I or general formula II in the formulation to reduce the cell population by two log orders after 7 days of the five following microorganisms, Staphylococcus aureus, Pseudomonas aeruginosa, Eschrechia coli, Candida albicans and Aspergillus niger, or that which will prevent the growth of fungal bioburden by ±0.5 log.
Data obtained from a preservative efficacy response study of S-1218 with or without the stated concentrations of PHMB in borate-buffered solution containing 0.85 wt. % sodium borate, 0.06 wt. % boric acid and 0.26 wt. % sodium chloride is provided in Tables 3A and 3B. The study also included a response against S. Aureus, P. Aeruginosa, E. Coli, and C. Albicans.
Data obtained from a preservative efficacy response study of select alkyldimonium hydroxypropyl alkylglucosides of general formula I or general formula II in borate-buffered solution containing 0.85 wt. % sodium borate, 0.06 wt. % boric acid and 0.26 wt. % sodium chloride is provided in Table 4. Example 9 includes 0.2 wt. % S-1218; Example 10 includes 0.2 wt. % S-1010P; Example 11 includes 0.2 wt. % L-1210P; and Example 12 includes 0.2 wt. % S-1010. The study also included a response against S. Aureus, P. Aeruginosa, E. Coli, and C. Albicans.

| Substance | biocidal efficacy (in words) [1] | biocidal control of A. Niger (in words) (A. Niger) |
| --- | --- | --- |
| stearyl dimonium hydropropyl laurylglucoside | relatively high increase in biocidal efficacy | – |
| stearyldimonium hydroxypropyl laurylglucosides chloride [Example S-1218] | – | significant biocidal control |
| stearyldimonium hydropropyl decylglucoside | relatively high increase in biocidal efficacy | – |
